# Source: US10961203B2, “Crystalline forms of 3-Z-[1-(4-(N-((4-methyl-piperazin-1-yl)-methylcarbonyl)-N-methyl-amino)-phenylamino)-1-phenyl-methylene]-6-methoxycarbonyl-2-indolinone” (Allgenesis Biotherapeutics Inc., priority 2017, dated 2021)
# Experiment: Stability test of Crystalline Form F of Nintedanib (XRPD after storage)
# Type: physicochemical
# Conditions: polyethylene bag in desiccator, no humidity control, room temperature, three months; FIG. 15 before, FIG. 23 after
# Description: In each example, XRPD experiment was conducted using a Bruker D8 advance diffractometer, with a Cu Ka (wavelength 1.54056 Å) filled tube (40 kV, 40 mA) as the X-ray source having a wide angle goniometer, a 0.6 mm divergent slit, a 2.5° primary Sola slit, a 2.5° secondary Sola slit, an 8 mm anti-scattering slit, a 0.1 mm detector slit, and Lynx Eye detector, at room temperature. In a 2θ continuous scanning mode, the data acquisition was completed with a scanning speed of 2.4°/min and a scanning step of 0.02° in the range of 3° to 40°.
# Crystalline Form F of Nintedanib obtained with the preparation method in Example 5 was placed in a polyethylene plastic bag, the plastic bag was then placed in a desiccator with no humidity control at room temperature for three months (from April 12 to July 12).
smiles,measurement,value
"COC(=O)c1ccc2c(c1)NC(=O)/C2=C(\Nc1ccc(N(C)C(=O)CN2CCN(C)CC2)cc1)c1ccccc1 [Crystalline Form F, 3-Z-[1-(4-(N-((4-methyl-piperazin-1-yl)-methylcarbonyl)-N-methyl-amino)-phenylamino)-1-phenyl-methylene]-6-methoxycarbonyl-2-indolinone]",crystalline form by XRPD after storage (stability of Crystalline Form F),all the measurements showed a result of Crystalline Form F
